# Reference: patent US10294202B2, “Pyrrolidinones as herbicides” (FMC Corporation, priority 2013, dated 2019)
# Legend:
# [1] = tested on: morningglory; assay: Test C pre-/postemergence herbicide test; type: in vivo, Ipomoea coccinea
# Outline: (§1)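 Visual rating, 0 (no effect) to 100 (complete control), versus untreated controls after 13 to 15 days in the greenhouse. Pre: seeds in loam/sand, sprayed at planting. Post: 1- to 4-leaf plants (2 to 18 cm) in peat-based mix. Compounds in non-phytotoxic solvent plus surfactant.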
# [2] = tested on: ragweed; assay: Test C pre-/postemergence herbicide test; type: in vivo, Ambrosia elatior
# Outline: as §1
# [3] = tested on: pigweed; assay: Test C pre-/postemergence herbicide test; type: in vivo, Amaranthus retroflexus
# Outline: as §1
# [4] = tested on: galium; assay: Test C pre-/postemergence herbicide test; type: in vivo, Galium aparine; conditions: Preemergence
# Outline: as §1
# [5] = tested on: barnyardgrass; assay: Test C pre-/postemergence herbicide test; type: in vivo, Echinochloa crus-galli
# Outline: as §1
# [6] = tested on: ryegrass, Italian; assay: Test C pre-/postemergence herbicide test; type: in vivo, Lolium multiflorum
# Outline: as §1
# [7] = tested on: wheat (winter wheat); assay: Test C pre-/postemergence herbicide test; type: in vivo, Triticum aestivum
# Outline: as §1
# [8] = tested on: lambsquarters; assay: Test C pre-/postemergence herbicide test; type: in vivo, Chenopodium album
# Outline: as §1
# [9] = tested on: waterhemp; assay: Test C pre-/postemergence herbicide test; type: in vivo, Amaranthus rudis
# Outline: as §1
# [10] = tested on: soybean; assay: Test C pre-/postemergence herbicide test; type: in vivo, Glycine max
# Outline: as §1
# [11] = tested on: sedge, umbrella; assay: Test B flooded paddy test; type: in vivo, Cyperus difformis; conditions: 500 g ai/ha, Flood; scale of 0 to 100 where 0 is no effect and 100 is complete control
# Outline: (§2)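 In-water application to pots flooded 3 cm deep, plants at 2-leaf stage. Held in greenhouse 13–15 days at constant flood depth. Scored 0–100 by eye against controls.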
# [12] = tested on: corn; assay: Test C pre-/postemergence herbicide test; type: in vivo, Zea mays
# Outline: as §1
# [13] = tested on: ducksalad; assay: Test B flooded paddy test; type: in vivo, Heteranthera limosa; conditions: 500 g ai/ha, Flood; scale of 0 to 100 where 0 is no effect and 100 is complete control
# Outline: as §2
# [14] = tested on: barnyardgrass; assay: Test B flooded paddy test; type: in vivo, Echinochloa crus-galli; conditions: 500 g ai/ha, Flood; scale of 0 to 100 where 0 is no effect and 100 is complete control
# Outline: as §2
# [15] = tested on: oat, wild; assay: Test C pre-/postemergence herbicide test; type: in vivo, Avena fatua; conditions: Postemergence
# Outline: as §1
# [16] = Postemergence, 31 g ai/ha, scale 0 to 100 (0 no effect, 100 complete control)
# [17] = Postemergence, 62 g ai/ha, scale 0 (no effect) to 100 (complete control)
# [18] = Postemergence, 125 g ai/ha, scale 0 to 100 (0 no effect, 100 complete control)
# [19] = Postemergence, 250 g ai/ha, scale 0 to 100 (0 no effect, 100 complete control)
# [20] = Preemergence, 31 g ai/ha, scale 0 to 100, 0 is no effect and 100 is complete control
# [21] = Preemergence, 62 g ai/ha, scale 0 to 100 (0 no effect, 100 complete control)
# [22] = Preemergence, 125 g ai/ha, scale 0 to 100
compound,measurement,setting,value
O=C1NCC(c2cccc(OC(F)F)c2)C1C(=O)Nc1ccc(F)c(F)c1F (centres unmarked) [Compound 325],"Plant response rating, Morningglory",[1]; [16],5
same,"Plant response rating, Morningglory",[1]; [17],5
same,"Plant response rating, Morningglory",[1]; [18],35
same,"Plant response rating, Morningglory",[1]; [19],50
same,Morningglory plant response rating,[1]; [20],0
same,Morningglory plant response rating,[1]; [21],30
same,"Plant response rating, Morningglory",[1]; [22],30
same,"Plant response rating (scale of 0 to 100), Morningglory","[1]; Preemergence, 250 g ai/ha",40
same,"Plant response rating, Ragweed",[2]; [16],10
same,"Plant response rating, Ragweed",[2]; [17],10
same,"Plant response rating, Ragweed",[2]; [18],25
same,"Plant response rating, Ragweed",[2]; [19],35
same,Ragweed plant response rating,[2]; [21],60
same,"Plant response rating, Ragweed",[2]; [22],80
same,"Plant response rating, Pigweed",[3]; [16],40
same,"Plant response rating, Pigweed",[3]; [17],55
same,"Plant response rating, Pigweed",[3]; [18],50
same,"Plant response rating, Pigweed",[3]; [19],65
same,Pigweed plant response rating,[3]; [20],65
same,Pigweed plant response rating,[3]; [21],65
same,"Plant response rating, Pigweed",[3]; [22],75
same,Galium plant response rating,"[4]; 31 g ai/ha, scale 0 to 100, 0 is no effect and 100 is complete control",0
same,Galium plant response rating,"[4]; 62 g ai/ha, scale 0 to 100 (0 no effect, 100 complete control)",20
same,"Plant response rating, Galium","[4]; 125 g ai/ha, scale 0 to 100",50
same,"Plant response rating (scale of 0 to 100), Galium",[4]; 250 g ai/ha,80
same,"Plant response rating, Barnyardgrass",[5]; [16],10
same,"Plant response rating, Barnyardgrass",[5]; [17],25
same,"Plant response rating, Barnyardgrass",[5]; [18],70
same,"Plant response rating, Barnyardgrass",[5]; [19],80
same,Barnyardgrass plant response rating,[5]; [20],85
same,Barnyardgrass plant response rating,[5]; [21],90
same,"Plant response rating, Barnyardgrass","[5]; Preemergence, 125 g ai/ha, scale 0 to 100 (0 no effect, 100 complete control)",95
same,"Plant response rating (scale of 0 to 100; 0 is no effect, 100 is complete control), Barnyardgrass","[5]; Preemergence, 250 g ai/ha",95
same,"Plant response rating, Ryegrass, Italian",[6]; [16],0
same,"Plant response rating, Ryegrass, Italian",[6]; [17],0
same,"Plant response rating, Ryegrass, Italian",[6]; [18],0
same,"Plant response rating, Ryegrass, Italian",[6]; [19],30
same,"Ryegrass, Italian plant response rating",[6]; [21],40
same,"Plant response rating, Ryegrass, Italian",[6]; [22],50
same,"Plant response rating, Wheat",[7]; [16],0
same,"Plant response rating, Wheat",[7]; [17],0
same,"Plant response rating, Wheat",[7]; [18],0
same,"Plant response rating, Wheat",[7]; [19],5
same,Wheat plant response rating,[7]; [21],40
same,"Plant response rating, Wheat",[7]; [22],65
same,"Plant response rating, Lambsquarters",[8]; [16],20
same,"Plant response rating, Lambsquarters",[8]; [17],45
same,"Plant response rating, Lambsquarters",[8]; [18],70
same,"Plant response rating, Lambsquarters",[8]; [19],65
same,Lambsquarters plant response rating,[8]; [20],45
same,Lambsquarters plant response rating,[8]; [21],70
same,"Plant response rating, Lambsquarters",[8]; [22],80
same,"Plant response rating (scale of 0 to 100), Lambsquarters","[8]; Preemergence, 250 g ai/ha",80
same,"Plant response rating, Waterhemp",[9]; [16],0
same,"Plant response rating, Waterhemp",[9]; [17],0
same,"Plant response rating, Waterhemp",[9]; [18],25
same,"Plant response rating, Waterhemp",[9]; [19],35
same,Waterhemp plant response rating,[9]; [21],75
same,"Plant response rating, Waterhemp",[9]; [22],80
same,"Plant response rating, Soybean",[10]; [16],0
same,"Plant response rating, Soybean",[10]; [17],0
same,"Plant response rating, Soybean",[10]; [18],0
same,"Plant response rating, Soybean",[10]; [19],0
same,Soybean plant response rating,[10]; [21],0
same,"Plant response rating, Soybean",[10]; [22],0
same,"Plant response rating, Sedge, Umbrella",[11],40
same,"Plant response rating, Corn",[12]; [16],0
same,"Plant response rating, Corn",[12]; [17],0
same,"Plant response rating, Corn",[12]; [18],10
same,"Plant response rating, Corn",[12]; [19],35
same,Corn plant response rating,[12]; [20],10
same,Corn plant response rating,[12]; [21],60
same,"Plant response rating, Corn",[12]; [22],70
same,"Plant response rating (scale of 0 to 100), Corn","[12]; Preemergence, 250 g ai/ha",85
same,"Plant response rating, Ducksalad",[13],100
same,"Plant response rating, Barnyardgrass",[14],70
same,"Plant response rating, Oat, Wild","[15]; 31 g ai/ha, scale 0 to 100 (0 no effect, 100 complete control)",0
same,"Plant response rating, Oat, Wild","[15]; 62 g ai/ha, scale 0 (no effect) to 100 (complete control)",0
same,"Plant response rating, Oat, Wild","[15]; 125 g ai/ha, scale 0 to 100 (0 no effect, 100 complete control)",5
same,"Plant response rating, Oat, Wild","[15]; 250 g ai/ha, scale 0 to 100 (0 no effect, 100 complete control)",15
